Publication PMC3486420, “In Vitro and In Vivo Characterizations of Chiglitazar, a Newly Identified PPAR Pan-Agonist” (PPAR Research, 2012)

Key:
SMMC-7721 cells = assay: Gene expression by RT-PCR in SMMC-7721 cells; assay type: cell-based, human; details: 48 h, 10 μM rosiglitazone, 10 μM chiglitazar
From the text: (§1) cDNAs for human retinoid X receptor (hRXR), PPARα, PPARγ, and PPARδ were obtained by reverse transcriptase polymerase chain reaction (RT-PCR) from human liver or adipose tissues. Amplified cDNAs were cloned into pcDNA3.1 expression vector (Invitrogen, Carlsbad, CA, USA). The integrity and fidelity of all constructs made were verified by DNA sequencing. Luciferase reporter plasmids, ACOX promoter for PPARγ and pHD(X3)-luc for PPARα, were kind gifts of Drs. TM McIntyre (University of Utah, USA) and RA Rachubinski (University of Alberta, Canada), respectively. PPRE-luc for PPARδ was constructed based on the previous report by insertion of the annealed oligonucleotides having four copies of the CYP4A6 PPRE (4 × […]) into the upstream of the luciferase coding sequence in pGL3-promoter vector (Promega, Madison, WI, USA). pCMVβGal was purchased from Clontech (Palo Alto, CA, USA). The mouse 3T3-L1 preadipocyte cell line, skeletal muscle C2C12 cell line, and macrophage RAW267.4 cell line and the human osteosarcoma U2OS cell line were obtained from the American Type Culture Collection (ATCC, Rockville, MD, USA). The human hepatoma SMMC-7721 cell line was obtained from the Cell Culture Center of Chinese Academy of Medical Sciences (Beijing, China). Cell lines were cultured in medium of DMEM (3T3-L1, C2C12, and SMMC-7721), RPMI 1640 (RAW267.4), or McCoy's 5A (U2OS), containing 10% fetal bovine serum (FBS), 50 μg/mL streptomycin, and 50 units/mL penicillin at 37°C in a humidified incubator with 5% CO2.
(§2) Total RNA was extracted from cells or tissues with an RNeasy minikit (Qiagen, Valencia, CA, USA). The first-strand cDNA was synthesized using the oligo(dT) primers, followed by using SuperScript II reverse transcriptase (Invitrogen) according to the manufacturer's instructions. The PCR amplifications were performed in 10 μL of reaction mixture volume containing 0.8 μL of cDNA, 10 mM Tris-HCl (pH 8.3), 50 mM KCl, 1.5 mM MgCl2, 0.1% Triton X-100, 0.2 mM deoxynucleotide triphosphates, 0.4 μM primers, and 0.25 U of Taq polymerase (TaKaRa Biotechnology Co., Ltd, China). Taq DNA polymerase was added to each tube after a treatment of 2 min at 94°C. This was followed by 22–30 cycles of denaturation (23 s at 94°C), annealing (20 s at 55°C), extension (30 s at 72°C), and a final extension step of 2 min. PCR products were analyzed by electrophoresis on a 1.5% agarose gel stained with ethidium bromide.
Figure 1 In vitro regulation of gene expression by chiglitazar. (a) Endogenous expression of individual PPAR subtypes in cell lines. […]. The expression change of referred genes induced by different compounds was normalized against internal control (36B4 or GAPDH) and then compared with vehicle control treatment. The data shown are averaged from 3 independent experiments.

3T3-L1 cells = assay: Gene expression by RT-PCR in 3T3-L1 cells; assay type: cell-based, mouse; details: 48 h, 10 μM rosiglitazone, 10 μM chiglitazar, vs vehicle
From the text: as §1, with “The human hepatoma SMMC-7721 cell line was obtained from the Cell Culture Center of Chinese Academy of Medical Sciences (Beijing, China). Cell lines were cultured in medium of DMEM (3T3-L1, C2C12, and SMMC-7721), RPMI 1640 (RAW267.4), or McCoy's 5A (U2OS), containing 10% fetal bovine serum (FBS), 50 μg/mL streptomycin, and 50 units/mL penicillin at 37°C in a humidified incubator with 5% CO2.” left out
Total RNA was extracted from cells or tissues with an RNeasy minikit (Qiagen, Valencia, CA, USA). […] PCR products were analyzed by electrophoresis on a 1.5% agarose gel stained with ethidium bromide. […]

KKAy mice = assay: Gene expression by RT-PCR in tissues of treated KKAy mice; assay type: in vivo, mouse; details: 12 days oral
Procedure: as §2
Male db/db mice (BKS.Cg-m +/+ LEPR^db) in 6-7 weeks were purchased from The Jackson Laboratory (Bar Harbor, ME, USA). Male KKAy and C57BL/6J mice in 8–10 weeks were obtained from the Institute of Animal Science, Chinese Academy of Medical Sciences and Peking Union Medical College (Beijing, China). Animals were randomly sorted into different treatment groups (8–10 per group). […]. Plasma glucose levels were examined at various time points by Accu-Chek Advantage II Glucose Strips (Roche Diagnostics, Basel, Switzerland) and measured by Accu-Chek Advantage (Roche Diagnostics). Animals were sacrificed 24 h after the last dosing and abdominal fat pad, liver, and skeletal muscle from KKAy mice and abdominal fat pad from db/db mice were taken for gene expression analysis.
Figure 3 In vivo regulation of gene expression by chiglitazar. […]. Equal amount of total RNA from each mouse in the same group was mixed and subjected to RT-PCR analysis for the indicated genes. […]. Total RNA was isolated from individual animal tissues and subjected to the RT-PCR analysis independently for the indicated genes.

db/db mice = assay: Gene expression by RT-PCR in tissues of treated db/db mice; assay type: in vivo, mouse; details: 14 days oral, chiglitazar 20 mg kg^−1 compared with rosiglitazone 5 mg kg^−1
Procedure: as §2
Male db/db mice (BKS.Cg-m +/+ LEPR^db) in 6-7 weeks were purchased from The Jackson Laboratory (Bar Harbor, ME, USA). Male KKAy and C57BL/6J mice in 8–10 weeks were obtained from the Institute of Animal Science, Chinese Academy of Medical Sciences and Peking Union Medical College (Beijing, China). […] Plasma glucose levels were examined at various time points by Accu-Chek Advantage II Glucose Strips (Roche Diagnostics, Basel, Switzerland) and measured by Accu-Chek Advantage (Roche Diagnostics). […]

Wistar obese rats = system: Wistar obese rats; design: method as in PMID 16751799; details: Wistar obese rats treated for 9–40 days ref 18; cited from earlier work
[1] = chiglitazar 20 mg kg^−1, rosiglitazone 5 mg kg^−1

O=C(c1ccc(F)cc1)c1ccccc1NC(Cc1ccc(OCCn2c3ccccc3c3ccccc32)cc1)C(=O)O (stereo not drawn) [Chi, 2-[(2-(4-fluorobenzoyl)phenyl)amino]-3-[4-(2-carbazolylethoxy)-phenyl]-propionic acid]
Expression of PPARγ downstream genes AOX, LIPC and HSL (SMMC-7721 cells; vs vehicle): upregulated
Expression of LDL receptor (LDLR) (SMMC-7721 cells; 50 μM WY14643, 5 μM 2-Bro): kept no change
Expression of PPARγ downstream genes SREBP1 and adiponectin (3T3-L1 cells): upregulated
Expression of ACADL, HSL, GLUT4 and PPARγ in liver and skeletal muscle (KKAy mice; [1]): not affected
Expression of genes involved in PPARγ-mediated insulin sensitization in adipose tissue (KKAy mice; [1]): almost identically up-regulated
Expression of PPARα and VLCS in adipose tissue (KKAy mice; chiglitazar 20 mg kg^−1 compared with rosiglitazone 5 mg kg^−1): greater degree of upregulation
Expression of leptin and SREBP1 in liver and skeletal muscle (KKAy mice; chiglitazar 20 mg kg^−1 vs rosiglitazone 5 mg kg^−1): more upregulated
Expression of UCP1 in adipose tissue (db/db mice): greater degree of upregulation
Optimal efficacy dose (Wistar obese rats): 10 mg/kg
